Source: the NIST ThermoML archive (doi:10.1016/j.jct.2011.06.012)

Test: xn = mol fraction of the nth substance listed
Conditions: Liquid, Bellows volumetry

CC(C)C [2-methylpropane] + O=C=O
mass density [kg/m3]
Conditions	280 K	300 K	320 K	340 K	360 K	380 K	400 K	420 K	440 K
3000 kPa, x2 = 0.2482	611.63	–	–	–	–	–	–	–	–
3000 kPa, x2 = 0.4718	651.84	–	–	–	–	–	–	–	–
5000 kPa, x2 = 0.2482	615.96	–	552.16	–	–	–	–	–	–
5000 kPa, x2 = 0.4718	658.57	614.91	560.46	–	–	–	–	–	–
5000 kPa, x2 = 0.7506	741.3	–	–	–	–	–	–	–	–
10000 kPa, x2 = 0.2482	625.46	–	569.21	–	501.22	–	408.28	–	–
10000 kPa, x2 = 0.4718	672.04	634.66	592.64	543.45	481.3	–	–	–	–
10000 kPa, x2 = 0.7506	765.85	–	614.39	–	–	–	–	–	–
20000 kPa, x2 = 0.2482	641.52	–	593.88	–	542.86	–	486.62	–	428.1
20000 kPa, x2 = 0.4718	693.75	662.67	630.32	596.56	560.5	521.68	481.65	441.54	402.95
20000 kPa, x2 = 0.7506	800.45	–	697.56	–	574.95	–	–	–	–
30000 kPa, x2 = 0.2482	655.06	–	611.98	–	568.79	–	523.46	–	479.05
30000 kPa, x2 = 0.4718	710.92	683.38	655.66	627.77	598.86	568.93	539.19	509.95	481.23
30000 kPa, x2 = 0.7506	826.02	–	740.51	–	649.75	–	557.06	–	473.55
40000 kPa, x2 = 0.2482	665.95	–	627.15	–	588.52	–	548.72	–	511.07
40000 kPa, x2 = 0.4718	725.26	700.1	675.36	650.8	625.7	600.05	574.86	550.57	526.82
40000 kPa, x2 = 0.7506	846.38	–	771.26	–	694.72	–	618.58	–	548.5
50000 kPa, x2 = 0.2482	676.07	–	639.69	–	604.55	–	568.35	–	534.44
50000 kPa, x2 = 0.4718	737.44	714.21	691.66	669.07	646.76	623.65	601.24	579.87	559.05
50000 kPa, x2 = 0.7506	863.38	–	795.16	–	727.44	–	660.8	–	599.76
60000 kPa, x2 = 0.2482	684.83	–	650.61	–	617.73	–	584.33	–	553.6
60000 kPa, x2 = 0.4718	748.54	726.58	705.67	684.42	664.02	642.83	622.39	602.9	584.01
60000 kPa, x2 = 0.7506	878.75	–	815.43	–	753.47	–	693.37	–	637.87
70000 kPa, x2 = 0.2482	693.01	–	660.32	–	629.43	–	598.36	–	569.47
70000 kPa, x2 = 0.4718	758.63	737.54	717.84	697.86	678.79	658.77	640.1	622.11	604.56
70000 kPa, x2 = 0.7506	892.04	–	832.58	–	775.21	–	719.26	–	668.37
80000 kPa, x2 = 0.2482	700.46	–	669.23	–	639.78	–	610.26	–	583.24
80000 kPa, x2 = 0.4718	767.66	747.72	728.73	709.95	691.87	672.89	655.36	638.65	622.24
80000 kPa, x2 = 0.7506	904.12	–	847.76	–	793.79	–	741.54	–	694.04
90000 kPa, x2 = 0.2482	707.4	–	677.43	–	649.26	–	620.93	–	595.28
90000 kPa, x2 = 0.4718	775.73	756.68	738.7	720.77	703.51	685.61	668.68	652.88	637.3
90000 kPa, x2 = 0.7506	915.3	–	861.33	–	810.34	–	760.76	–	716.21
100000 kPa, x2 = 0.2482	713.94	–	685.01	–	658	–	630.87	–	606.31
100000 kPa, x2 = 0.4718	783.73	764.82	748.11	730.63	714.09	697.01	680.77	665.6	650.87
100000 kPa, x2 = 0.7506	925.43	–	873.81	–	825.34	–	778	–	735.56
120000 kPa, x2 = 0.2482	725.79	–	698.63	–	673.4	–	647.91	–	625.43
120000 kPa, x2 = 0.4718	797.65	780.34	764.51	748.22	733.04	716.82	701.98	688.04	674.34
120000 kPa, x2 = 0.7506	944.22	–	895.88	–	851.1	–	807.55	–	768.56
140000 kPa, x2 = 0.2482	736.43	–	710.75	–	686.88	–	662.89	–	641.8
140000 kPa, x2 = 0.4718	810.05	794.03	778.96	764.19	749.43	734.35	720.03	707.29	694.6
140000 kPa, x2 = 0.7506	960.61	–	915.09	–	872.92	–	832.23	–	796.08
160000 kPa, x2 = 0.2482	746.22	–	721.58	–	699.29	–	675.97	–	656.01
160000 kPa, x2 = 0.4718	821.36	805.98	791.76	777.55	763.95	749.48	735.72	723.63	711.68
160000 kPa, x2 = 0.7506	975.64	–	932.24	–	892.29	–	854.07	–	819.85
180000 kPa, x2 = 0.2482	755.07	–	731.49	–	710.13	–	687.97	–	668.66
180000 kPa, x2 = 0.4718	831.97	817	803.87	790.06	777.13	763.2	749.97	738.5	726.86
180000 kPa, x2 = 0.7506	989.13	–	947.81	–	909.66	–	873.25	–	840.83
200000 kPa, x2 = 0.2482	763.28	–	740.45	–	720.21	–	698.66	–	680.35
200000 kPa, x2 = 0.4718	841.63	827.43	814.43	801.25	789.12	775.73	763.13	752.04	741.37
200000 kPa, x2 = 0.7506	1001.91	–	962.05	–	925.27	–	890.48	–	859.57
